“Also recorded” adds a separate entry of the source.
Key:
[1] = system: Immortalized baby mouse kidney (iBMK) cells, non-activated (D3); assay: iBMK cell growth with 12a, non-activated (D3); assay type: cell-based
Method: (§1) FIG. 7: Bioactivity of farnesoic diacid. FIG. 7(a): E. coli NCM372 was grown to an optical density (OD600) of around 0.2, where either 12a in DMSO was added to final concentration of 10 μM (+) or DMSO was added (−). Three biological replicates are shown, and statistical significance using an unpaired t test is shown. FIG. 7(b): Immortalized baby mouse kidney (iBMK) cells were grown, either non-activated (D3) or Ras-activated (Ras). 12a in DMSO was added to final concentration of 10 μM (+) or DMSO was added (−). Three biological replicates are shown, and statistical significance using an unpaired t test is shown.
(§2) We supplemented cultures with 12a to a final concentration of 10 μM and monitored growth in both Escherichia coli (FIG. 6a) and mammalian cell lines (FIG. 6b). […] These findings provide evidence that farnesoic diacid and potentially our other newly discovered bifunctional terpenoids may have distinct bioactivities across diverse biological contexts, with applications in more efficient cultivation of microbes and selective activity against certain mammalian cells. As the longer bifunctional terpenoids (C25-C30) resemble oxylipin and polyunsaturated fatty acids, which are implicated in immunity and obesity, we reason that bioactivity may be related to lipid metabolism in mammalian systems that will be relevant in pharmaceutical contexts. […]

[2] = system: E. coli NCM372; assay: E. coli growth with 12a supplementation; assay type: cell-based, Escherichia coli
Method: as §1
We supplemented cultures with 12a to a final concentration of 10 μM and monitored growth in both Escherichia coli (FIG. 6a) and mammalian cell lines (FIG. 6b). […] These findings provide evidence that farnesoic diacid and potentially our other newly discovered bifunctional terpenoids may have distinct bioactivities across diverse biological contexts, with applications in more efficient cultivation of microbes and selective activity against certain mammalian cells. As the longer bifunctional terpenoids (C25-C30) resemble oxylipin and polyunsaturated fatty acids, which are implicated in immunity and obesity, we reason that bioactivity may be related to lipid metabolism in mammalian systems that will be relevant in pharmaceutical contexts. Furthermore, the shorter bifunctional terpenoids (C15-C20) and their preceding biosynthetic intermediates resemble inhibitors of insect development, such as juvenile hormones, these molecules may serve as scaffolds for insecticide drug activity to target insect development. Further research on the novel molecules will illuminate more bioactivities on humans, human cells, research animals, plants, insects, and microorganisms.

[3] = system: Immortalized baby mouse kidney (iBMK) cells, Ras-activated (Ras); assay: iBMK cell growth with 12a, Ras-activated (Ras); assay type: cell-based
Method: as §1, §2

[4] = 12a 10 μM vs DMSO, 3 biological replicates

C/C(=C\CC/C(C)=C/C(=O)O)CC/C=C(\C)C(=O)O [12a, farnesoic diacid]
proliferation / cell growth ([1]; 12a 10 μM): decreases mammalian (cancer-like) cell growth; also recorded: modest decrease in proliferation | cancer-like cell lines grew slower with treatment [1, 4]: ~10% | microbial cells grew faster with treatment ([2]; 12a 10 μM in DMSO vs DMSO, added at OD600 around 0.2, 3 biological replicates): ~10% | final optical density ([2]; 12a 10 μM vs DMSO): higher final optical density | microbial growth rate / cell growth ([2]; 12a 10 μM vs DMSO): increases microbial cell growth; also recorded: increased microbial growth rate | total biomass content ([2]; farnesoic diacid treatment, FIG. 7): increased | proliferation / cell growth ([3]; 12a 10 μM): decreases mammalian (cancer-like) cell growth; also recorded: modest decrease in proliferation | cancer-like cell lines grew slower with treatment [3, 4]: ~10%
